Reference: US20260258016A1, “SUBSTITUTED PYRIDAZINE-3-CARBOXAMIDE COMPOUND SERVING AS TYK2 INHIBITOR” (Guangzhou Fermion Technology Co., Ltd., priority 2022, published 2026)
Read-outs that look alike come from different tables or passages of the source.

Legend:
[1] = tested on: IL-2-induced STAT5 phosphorylation (JAK1/3) in CD3+ cells of human PBMC; test: IL-2-induced STAT5 phosphorylation (JAK1/3) in CD3+ cell subpopulations in human PBMC, flow cytometry; assay type: cell-based; details: IL-2 stimulation 20 min, read-out: IL-2-induced CD3+ pSTAT5 (JAK1/3) in hPBMC (IC50)
Procedure: Purpose: The purpose of this test case was to test the inhibitory effect of the compound on IL-2-induced STAT5 phosphorylation using protein phosphorylation flow cytometric analysis technology.
Human PBMC cells were pre-incubated with the compounds, STAT5 was induced to phosphorylate under appropriate stimulation conditions, and corresponding cell subpopulations and targets were stained. Flow cytometry was used to read cell data and analyze the strength of phosphorylated antibody signals under different compound concentrations. PBMCs were resuspended and dispensed into a 96-well plate, 62.5 μL/well. 3.5 μL of 20× compound working solutions were added and incubated at 37° C. for 30 minutes. 5 μL of PE mouse anti-human CD3 (BD) was added and incubated for 30 min at 37° C. in the dark. 4 μL of 20×IL-2 (R&D) was added to each well and incubated at 37° C. in the dark for 20 minutes. All cells in the 96-well plate were transferred to a deep-well plate, 400 μL of a fixation working solution (Biolegend) was added to each well, and incubated at room temperature in the dark for 20 minutes. The cells were washed twice with PBS, and 400 μL of Perm Buffer III (BD) was added and incubated at 4° C. in the dark for 40 minutes. The cells were washed twice with PBS, and 100 μL of a STAT5 pY694 antibody working solution (BD) was added and incubated at room temperature for 40 minutes. After washing once with PBS, the cells were resuspended in 200 μL of a staining buffer and transferred to a sample plate. The antibody fluorescence intensity was analyzed using FlowJo software, and the IC50 of the compound was calculated using XL-Fit software.

JAK2 JH1 = molecular target: T1, JAK2 JH1 (Homo sapiens, UniProt O60674); test: JAK2 JH1 kinase inhibition (HTRF); assay type: biochemical; details: read-out: Inhibition on kinase activity (IC50, μM) JAK2 JHI
T1 construct: 5 μL/well of 2×JAK1 JH1/JAK2 JH1/JAK3 JH1/TYK2 JH1 kinase solutions
Procedure: (§1) After the completion of incubation, 5 μL of a mixed solution containing a 2×TK-SUB-biotin substrate and ATP was added to each well, uniformly mixed by centrifugation, and incubated at 25° C. for 45 minutes (JAK1/JAK2) or 60 minutes (JAK3/TYK2). After completion of incubation, 10 μL of an assay mixture (TK Antibody-EU and Streptavidin-XL mixture) was added to each well, uniformly mixed by centrifugation, and incubated at 25° C. for 60 minutes (JAK1/JAK2) or 120 minutes (JAK3/TYK2). After completion of incubation, the solutions were transferred to a 4° C. freezer for incubation overnight, and fluorescence values were read on an Envision 2104 Multilabel Reader, and the IC50 of the compound was calculated using XL-Fit software.

JAK1 JH1 = molecular target: T2, JAK1 JH1 (Homo sapiens, UniProt P23458); test: JAK1 JH1 kinase inhibition (HTRF); assay type: biochemical; details: read-out: Inhibition on kinase activity (IC50, μM) JAKI JHI
T2 construct: 5 μL/well of 2×JAK1 JH1/JAK2 JH1/JAK3 JH1/TYK2 JH1 kinase solutions
Procedure: Purpose: The purpose of this test example was to examine the inhibitory effect of the compound on the kinase activity of JAK1 JH1/JAK2 JH1/JAK3 JH1/TYK2 JH1 using homogeneous time-resolved fluorescence resonance energy transfer (HTRF) technology.
100 nL/well of compound working solutions were transferred to a 384-well assay plate using an automated micropipetting system, 5 μL/well of 2×JAK1 JH1/JAK2 JH1/JAK3 JH1/TYK2 JH1 kinase solutions or assay buffer were added, uniformly mixed by centrifugation, and incubated at the room temperature 25° C. for 15 minutes. After the completion of incubation, 5 μL of a mixed solution containing a 2×TK-SUB-biotin substrate and ATP was added to each well, uniformly mixed by centrifugation, and incubated at 25° C. for 45 minutes (JAK1/JAK2) or 60 minutes (JAK3/TYK2). After completion of incubation, 10 μL of an assay mixture (TK Antibody-EU and Streptavidin-XL mixture) was added to each well, uniformly mixed by centrifugation, and incubated at 25° C. for 60 minutes (JAK1/JAK2) or 120 minutes (JAK3/TYK2).

TYK2 JH1 = molecular target: T3, TYK2 JH1 (Homo sapiens, UniProt P29597); test: TYK2 JH1 kinase inhibition (HTRF); assay type: biochemical; details: read-out: Inhibition on kinase activity (IC50, μM) TYK2 JHI
T3 construct: 5 μL/well of 2×JAK1 JH1/JAK2 JH1/JAK3 JH1/TYK2 JH1 kinase solutions
T3 sequence (P29597 897-1176 limits assumed): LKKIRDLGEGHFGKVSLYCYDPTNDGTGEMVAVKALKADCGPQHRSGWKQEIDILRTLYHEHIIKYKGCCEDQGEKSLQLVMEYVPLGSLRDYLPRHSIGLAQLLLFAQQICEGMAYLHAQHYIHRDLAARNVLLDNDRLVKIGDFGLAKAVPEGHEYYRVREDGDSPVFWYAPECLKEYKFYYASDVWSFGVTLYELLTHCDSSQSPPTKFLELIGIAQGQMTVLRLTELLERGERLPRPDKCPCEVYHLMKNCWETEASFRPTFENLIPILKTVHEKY
Procedure: as §1

JAK3 JH1 = molecular target: T4, JAK3 JH1 (Homo sapiens, UniProt P52333); test: JAK3 JH1 kinase inhibition (HTRF); assay type: biochemical; details: read-out: Inhibition on kinase activity (IC50, μM) JAK3 JHI
T4 construct: 5 μL/well of 2×JAK1 JH1/JAK2 JH1/JAK3 JH1/TYK2 JH1 kinase solutions
Procedure: as §1

TYK2 JH2 pseudokinase = TYK2 JH2 pseudokinase (Homo sapiens, UniProt P29597); test: In vitro TYK2 JH2 enzyme binding assay (TR-FRET)
TYK2 JH2 pseudokinase, sequence (P29597 589-875 limits assumed): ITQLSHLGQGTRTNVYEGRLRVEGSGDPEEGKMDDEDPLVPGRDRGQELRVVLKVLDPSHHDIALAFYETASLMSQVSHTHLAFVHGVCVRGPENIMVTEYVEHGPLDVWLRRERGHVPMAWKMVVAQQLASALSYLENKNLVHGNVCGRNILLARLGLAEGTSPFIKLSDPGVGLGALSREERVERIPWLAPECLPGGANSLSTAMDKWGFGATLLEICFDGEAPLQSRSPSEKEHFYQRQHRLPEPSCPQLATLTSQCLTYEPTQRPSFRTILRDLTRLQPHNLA
Procedure: Purpose: The purpose of this test example was to use a fluorescence resonance energy transfer (TR-FRET) method to test the binding effect of the compound on a TYK2 JH2 pseudokinase, and then evaluate the affinity of the compound for TYK2 JH2.
DMSO-dissolved compounds were used to prepare 10 mM stock solutions, then 200× compounds having different gradient concentrations were prepared in a compound dilution plate, and transferred to an Echo plate. 75 nL of the compounds were transferred from the Echo plate to a 384-well assay plate using an Echo instrument, and 5 μL of 3×TYK2 JH2 pseudokinase (Bioduro), 5 μL of 3×Tb antibody (Cisbio) and 5 μL of 3×TRACER (Bioduro) were added to the 384-well assay plate, centrifuged for 30 seconds, and incubated at room temperature for 60 minutes.

T4 sequence (P52333 822-1111 limits assumed): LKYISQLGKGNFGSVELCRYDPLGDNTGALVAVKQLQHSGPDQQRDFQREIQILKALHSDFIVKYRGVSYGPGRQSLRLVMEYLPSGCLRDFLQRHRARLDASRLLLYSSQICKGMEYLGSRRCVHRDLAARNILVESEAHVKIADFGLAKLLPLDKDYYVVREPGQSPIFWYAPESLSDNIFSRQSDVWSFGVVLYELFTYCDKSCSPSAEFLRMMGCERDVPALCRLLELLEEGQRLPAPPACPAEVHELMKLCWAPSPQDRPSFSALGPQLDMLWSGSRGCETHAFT
T2 sequence (P23458 875-1153 limits assumed): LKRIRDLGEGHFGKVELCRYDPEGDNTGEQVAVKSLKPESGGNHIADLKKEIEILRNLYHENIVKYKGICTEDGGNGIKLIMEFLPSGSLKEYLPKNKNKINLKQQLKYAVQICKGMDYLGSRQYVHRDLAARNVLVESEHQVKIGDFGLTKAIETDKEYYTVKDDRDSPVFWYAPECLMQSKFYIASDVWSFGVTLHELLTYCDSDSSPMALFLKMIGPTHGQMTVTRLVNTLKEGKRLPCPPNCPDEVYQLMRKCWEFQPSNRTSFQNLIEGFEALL
T1 sequence (O60674 849-1124 limits assumed): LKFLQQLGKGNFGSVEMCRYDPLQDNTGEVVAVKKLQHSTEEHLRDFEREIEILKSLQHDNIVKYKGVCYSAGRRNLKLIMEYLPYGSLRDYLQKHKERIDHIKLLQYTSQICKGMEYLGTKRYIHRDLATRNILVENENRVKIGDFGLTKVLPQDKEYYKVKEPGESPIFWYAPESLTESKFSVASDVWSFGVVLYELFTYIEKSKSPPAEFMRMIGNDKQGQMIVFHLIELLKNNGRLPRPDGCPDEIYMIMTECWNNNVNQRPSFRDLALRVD

CCONC(=O)c1nnc(NC(=O)C2CC2)cc1Nc1cccc(-c2nc[nH]n2)c1OC [Compound 1, 6-(Cyclopropylcarboxamido)-N-ethoxy-4-((2-methoxy-3-(1H-1,2,4-triazol-3-yl)phenyl)amino)pyridazine-3-carboxamide]
IC50 ([1]; 20 min): > 30000 nM
IC50 (JAK2 JH1): > 10 µM
IC50 (JAK1 JH1): > 10 µM
IC50 (TYK2 JH1): > 10 µM
IC50 (JAK3 JH1): > 10 µM
IC50 (TYK2 JH2 pseudokinase): 0.21 nM

CCONC(=O)c1nnc(NC(=O)C2CC2)cc1Nc1cccc(-c2ncn(CCOC)n2)c1OC [Compound 2, 6-(Cyclopropylcarboxamido)-N-ethoxy-4-((2-methoxy-3-(1-(2-methoxyethyl)-1H-1,2,4-triazol-3-yl)phenyl)amino)pyridazine-3-carboxamide]
IC50 ([1]; 20 min): > 30000 nM
IC50 (JAK2 JH1): > 10 µM
IC50 (JAK1 JH1): > 10 µM
IC50 (TYK2 JH1): > 10 µM
IC50 (JAK3 JH1): > 10 µM
IC50 (TYK2 JH2 pseudokinase): 0.19 nM

CCONC(=O)c1nnc(NC(=O)C2CC2)cc1Nc1cccc(-c2ncn(CCF)n2)c1OC [Compound 4, 6-(Cyclopropylcarboxamido)-N-ethoxy-4-((3-(1-(2-fluoroethyl)-1H-1,2,4-triazol-3-yl)-2-methoxyphenyl)amino)pyridazine-3-carboxamide]
IC50 (TYK2 JH2 pseudokinase): 0.18 nM

CCONC(=O)c1nnc(NC(=O)C2CC2)cc1Nc1cccc(-c2ncn(CC(F)F)n2)c1OC [Compound 5, 6-(Cyclopropylcarboxamido)-4-((3-(1-(2,2-difluoroethyl)-1H-1,2,4-triazol-3-yl)-2-methoxyphenyl)amino)-N-ethoxypyridazine-3-carboxamide]
IC50 (TYK2 JH2 pseudokinase): 0.26 nM

CCONC(=O)c1nnc(NC(=O)C2CC2)cc1Nc1cccc(-c2ncn(CC(=O)O)n2)c1OC [Compound 7, 2-(3-(3-((6-(Cyclopropylcarboxamido)-3-(ethoxycarbamoyl)pyridazine-4-yl)amino)-2-methoxyphenyl)-1H-1,2,4-triazol-1-yl)acetic acid]
IC50 (TYK2 JH2 pseudokinase): 0.29 nM

CCONC(=O)c1nnc(NC(=O)C2CC2)cc1Nc1cccc(-c2ncn(CCC(=O)O)n2)c1OC [Compound 8, 3-(3-(3-((6-(Cyclopropylcarboxamido)-3-(ethoxycarbamoyl)pyridazine-4-yl)amino)-2-methoxyphenyl)-1H-1,2,4-triazol-1-yl)propanoic acid]
IC50 (TYK2 JH2 pseudokinase): 0.29 nM

CCONC(=O)c1nnc(NC(=O)C2CC2)cc1Nc1cccc(-c2ncn(CCCC(=O)O)n2)c1OC [Compound 9, 4-(3-(3-((6-(Cyclopropylcarboxamido)-3-(ethoxycarbamoyl)pyridazine-4-yl)amino)-2-methoxyphenyl)-1H-1,2,4-triazol-1-yl)butanoic acid]
IC50 (TYK2 JH2 pseudokinase): 0.42 nM

CCONC(=O)c1nnc(NC(=O)C2CC2)cc1Nc1cccc(-c2ncn(CCO)n2)c1OC [Compound 10, 6-(Cyclopropylcarboxamide)-N-ethoxy-4-((3-(1-(2-hydroxyethyl)-1H-1,2,4-triazol-3-yl)-2-methoxyphenyl)amino)pyridazine-3-carboxamide]
IC50 (TYK2 JH2 pseudokinase): 0.28 nM

BMS-986165 [reference compound]
IC50 [1]: 409 nM
